In article PMC4433340 (PLoS Neglected Tropical Diseases, 2015):

What was measured:
[1] = system: 15-epi-lipoxin A4 production by T. cruzi-infected EA.hy926 cells; assay: 15-epi-lipoxin A4 quantification by DSA-TOF MS in culture supernatants; assay type: cell-based, human; details: 5 μM simvastatin
Protocol: 8x10^5 EA.hy926 cells/well were cultured in 6-well plates (IMDM 10% SFB). […] 15-epi-LXA4 determination was performed by:
• ELISA assay: the supernatant from the cell cultures was assayed using a 15-epi-LXA4 BioAssay ELISA Kit (USBiological, USA) following manufacturer’s instructions. • AxION DSA—TOF MS determination: To determine 15-epi-lipoxin A4 levels in EAhy926 cell culture supernatants, an AxION Direct Sample Analysis (DSA) that was integrated with an AxION 2 time-of-flight (TOF) mass spectrometer (PerkinElmer, Shelton, CT, USA) was employed. For extraction, all of the samples were loaded onto a solid phase extraction and eluted with 1 mL chloroform three times successively. Then, the samples were transferred into a clean tube, and the chloroform in the samples was evaporated in a water bath. Finally, the samples were resuspended in 100 μL ethanol, and 10 μL were pipetted onto a stainless mesh. For the calibration curve, 15-epi-lipoxin A4 (cat#90415, Cayman Chemical, USA) was diluted in PBS to achieve different final concentrations (see S1 Fig). From each tube, 10 μL was pipetted onto a stainless mesh, and DSA—TOF determination was performed. The AxION DSA conditions were as follows: 5 μA corona current, 250°C heater temperature, 80 psi auxiliary gas (N2) pressure, 4 L/min drying gas (N2) flow, and 25°C drying gas (N2) temperature. […] Mass spectra were acquired with a mass range of 100–1000 m/z and an acquisition rate of 2 spectra/sec. To maintain mass accuracy, […] lock mass ions were used (m/z 119.0400, m/z 556.0000 and m/z 805.9900). All of the samples were analyzed for only 10 sec. The standards used were 15-epi-lipoxin A4 (cat#90415, Cayman Chemical,) and 5(S),6(R)-Lipoxin A4 methyl ester (cat#10033, Cayman Chemical) as an internal standard. These were confirmed in seconds by accurate mass and isotopic distribution of parent and fragment ions using DSA/TOF and AxION software, and compound identification was performed using the standards. All of the samples were analyzed in triplicate.

T. cruzi epimastigotes = details: at concentrations in the millimolar range; cited from earlier work
[2] = system: E-selectin, ICAM-1 and VCAM-1 expression on T. cruzi-infected EA.hy926 and HUVEC cells; assay: Endothelial cell adhesion molecule surface expression by flow cytometry / immunofluorescence; assay type: cell-based, human; details: 5 μM simvastatin or 20 μM benznidazole for 24 hours before 16 hours T. cruzi infection (MOI 10); EA.hy926 and HUVEC
Protocol: Then, cells were infected with trypomastigotes at a MOI of 10 and incubated for 16 hours. Cells were detached with 1X EDTA-PBS at 0.5 mM. The harvested cells were washed with cold PBS and centrifuged at 800 x g for 5 minutes. Then, cells were washed with flow cytometry buffer three times. 100 μL of cell suspensions were incubated for 45 min at 4°C in the dark with mouse monoclonal anti- human E-selectin (5 μL undiluted), ICAM-1(3 μL undiluted), and VCAM-1 (1 μL undiluted) that were conjugated with PE, FITC and APC, respectively (BioLegend, USA). Cell suspensions were analyzed by flow cytometry using a FACSAria-III flow cytometer (BD Biosciences, USA). A homogeneous cell population was selected by size vs. granularity in log scale for these two conditions.
2x10^4 EA.hy926 cells/slide were seeded in Lab-Tek II Chamber Slide^TM (ThermoScientific, USA) and allowed to adhere overnight. […] After 16 hours of infection, cells were fixed in 4% formaldehyde–0.1 M phosphate buffer (pH 7.3) for 10 min. Cells were blocked with 3% bovine serum albumin for 1 hour. Then, cells were incubated with monoclonal antibodies against E-selectin (1:100), VCAM-1 (1:250) and ICAM-1 (1:100) (from Abcam, UK) overnight at 4°C. The samples were washed with PBS and incubated with anti-rabbit IgG that had been conjugated with fluorescein (1:100) from Sigma-Aldrich for 1 h. Finally, nuclei were stained with DAPI for 5 minutes and mounted with Dako Fluorescence Mounting (Dako, USA). The cells were photographed using a Nikon Eclipse 400 fluorescence microscope (Nikon, Japan), and images were analyzed by mean intensity using ImageJ software (ImageJ 1.47v).

Row | Structure (SMILES) | 15-epi-lipoxin A4 concentration (Mean ± SD) ([1]; 3 hours) [ng/mL] | 15-epi-lipoxin A4 concentration (Mean ± SD) ([1]; 6 hours) [ng/mL] | 15-epi-lipoxin A4 concentration (Mean ± SD) ([1]; 12 hours) [ng/mL] | 15-epi-lipoxin A4 concentration (Mean ± SD) ([1]; 24 hours) [ng/mL] | Epimastigote proliferation (T. cruzi epimastigotes) | E-selectin, ICAM-1 and VCAM-1 surface expression [2]
1 | CCC(C)(C)C(=O)O[C@H]1C[C@@H](C)C=C2C=C[C@H](C)[C@H](CC[C@@H]3C[C@@H](O)CC(=O)O3)[C@H]21 [Simvastatin] | 1.58 ± 0.21 | 3.58 ± 1.22 | 37.28 ± 11.23 | 326 ± 34.25 | decreased epimastigote proliferation | 
2 | O=C(Cn1ccnc1[N+](=O)[O-])NCc1ccccc1 [Benznidazole] |  |  |  |  |  | prevent cell adhesion molecule expression
